Results as given in patent US8722661B2, “Pyrrolopyrimidone and pyrrolopyridone inhibitors of tankyrase” (Genentech, Inc., priority 2012, dated 2014).
pIC50: −log10 of the molar value.

Assays:
[1] = target: T1, PARP1 (His6-PARP1, full length) (Homo sapiens, UniProt P09874); experiment: μHTS-TNKS-IWR2 TR-FRET binding assay with His6-PARP1 in place of TNKS1; settings: Table I
T1 construct: His6-PARP1 (full length)
Experimental: (§1) μHTS-TNKS-IWR2TR-FRET Binding Assay
(§2) (10 μL/well in BD1536-well plate, a single point)
(§3) Alternatively, in place of His6-TNKS1 can use either His6-tankyrase 2 (construct: 934-1166) (His6-TNKS2) or His6-PARP1 (full length).
(§4) Biotin-IWR2: 10 mM Biotin-IWR2 stock in DMSO, stored at −20° C.
Positive control: 10 mM […] in DMSO, stored at −20° C.
(§5) Prepare Biotinylated IWR2 stock solution (3.33× stock) for TOTL and cpd wells: 200 nM Biotin-IWR2 in 5% DMSO/AB1b buffer
(§6) Prepare POSITIVE CONTROL well stock solution (3.33× stock): 200 nM XAV939 in 200 nM Biotin-IWR2/5% DMSO/AB1b buffer
(§7) (Alternatively, use TNKS2 or PARP1 stock solutions.)
(§8) Prepare Eu/APC stock solution (5× stock): 3.5 nM Eu-SA/50 nM APC-His6Ab in AB2 buffer
(§9) Add 25 μL/well 1.5% DMSO/AB1c buffer in each compound well to the compound concentration at 74 μM in 8.8% DMSO/AB1c buffer or in the 2 μL DMSO CONTROL wells (BLANK, TOTAL and POSITIVE wells) in the compound plate.
(§10) Transfer 3 μL/well above solution (solution 1,2,3) to an empty assay plate (BD1536-well plate) as follows:
(§11) Transfer 3 μL/well of the above diluted compound solutions or compound dilution buffer to the above assay plate.
(§12) Add 2 μL/well of 300 nM TNKS stock solution (4) to every well in the above assay plate.
(§13) Incubate the assay plate at 26° C. for 30 minutes.
(§14) Incubate the assay plate at 26° C. for 60 minutes.
(§15) Read the assay plate immediately at excitation wavelength of 330 nm and emission wavelength of […] in time resolved fluorescence mode.
(§16) Representative compound data for assays are listed below in Table I. Values are in uM.

[2] = target: T2, Tankyrase 1 (TNKS1) (Homo sapiens, UniProt O95271); experiment: μHTS-TNKS-IWR2 TR-FRET binding assay (TNKS1)
T2 construct: construct: 1088-1327, 1266M
T2 sequence (O95271 1088-1327): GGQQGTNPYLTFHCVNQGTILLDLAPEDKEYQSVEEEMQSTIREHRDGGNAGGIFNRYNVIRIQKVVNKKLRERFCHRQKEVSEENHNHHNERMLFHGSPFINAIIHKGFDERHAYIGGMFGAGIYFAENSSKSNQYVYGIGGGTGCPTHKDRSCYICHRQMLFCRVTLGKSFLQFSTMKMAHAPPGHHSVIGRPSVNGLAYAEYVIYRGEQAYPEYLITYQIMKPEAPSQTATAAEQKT
Experimental: as §1, §2
Reagents and Stock Solutions
as §4
Assay buffer 1a (AB 1a) for TNKS dilution: 50 mM Tris, pH 7.4, 100 mM sodium chloride solution, 1 mM magnesium chloride solution, 1 mM DL-dithiothreitol solution, 0.2 mg/mL bovine serum albumin solution, 0.025% NP-40.
Assay buffer 1b (AB 1b) for Biotin-IWR2 dilution: 50 mM Tris, pH 7.4, 100 mM sodium chloride solution, 1 mM magnesium chloride solution, 1 mM DL-dithiothreitol solution, 0.2 mg/mL bovine serum albumin solution, 0.05% NP-40
Assay buffer 1c (AB 1c) for compound dilution: 50 mM Tris, pH 7.4, 100 mM sodium chloride solution, 1 mM magnesium chloride solution, 1 mM DL-dithiothreitol solution, 0.2 mg/mL bovine serum albumin solution
Assay buffer 2 (AB2) for Eu/APC: 50 mM Tris, pH 7.4, 100 mM sodium chloride solution, 1 mM magnesium chloride solution, 0.2 mg/mL bovine serum albumin solution
Reagent Stock Solution Preparation
Prepare BLANK well stock solution: 5% DMSO/AB1b buffer
Prepare TNKS1 stock solution (5× stock): 300 nM TNKS in AB1a buffer
as §10
TOTL and cpd wells: Solution 1 (Biotin-IWR2):
BLNK wells: Solution 2 (No Biotin-IWR2):
POSITIVE CONTROL wells: Solution 3 (Biotin-IWR2+XAV939)
as §11, §12
Centrifuge the assay plate at 2100 rpm for 2 minutes.
as §13, §14

[3] = target: T3, tankyrase 2 (His6-TNKS2) (Homo sapiens, UniProt Q9H2K2); experiment: μHTS-TNKS-IWR2 TR-FRET binding assay with His6-TNKS2 in place of TNKS1; settings: Table I
T3 construct: His6-tankyrase 2 (construct: 934-1166)
T3 sequence (Q9H2K2 934-1166): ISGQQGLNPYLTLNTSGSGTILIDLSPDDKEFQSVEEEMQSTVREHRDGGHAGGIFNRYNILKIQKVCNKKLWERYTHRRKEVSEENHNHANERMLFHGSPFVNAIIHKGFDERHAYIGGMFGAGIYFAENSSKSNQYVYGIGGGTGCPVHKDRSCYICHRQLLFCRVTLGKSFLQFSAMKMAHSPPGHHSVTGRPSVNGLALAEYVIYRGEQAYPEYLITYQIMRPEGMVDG
Experimental: as §1, §2, §3, §4
Positive control: 10 mM XAV 939 in DMSO, stored at −20° C.
as §5, §6, §7, §8, §9, §10, §11, §12, §13, §14, §15, §16

T1 sequence (P09874 whole entry): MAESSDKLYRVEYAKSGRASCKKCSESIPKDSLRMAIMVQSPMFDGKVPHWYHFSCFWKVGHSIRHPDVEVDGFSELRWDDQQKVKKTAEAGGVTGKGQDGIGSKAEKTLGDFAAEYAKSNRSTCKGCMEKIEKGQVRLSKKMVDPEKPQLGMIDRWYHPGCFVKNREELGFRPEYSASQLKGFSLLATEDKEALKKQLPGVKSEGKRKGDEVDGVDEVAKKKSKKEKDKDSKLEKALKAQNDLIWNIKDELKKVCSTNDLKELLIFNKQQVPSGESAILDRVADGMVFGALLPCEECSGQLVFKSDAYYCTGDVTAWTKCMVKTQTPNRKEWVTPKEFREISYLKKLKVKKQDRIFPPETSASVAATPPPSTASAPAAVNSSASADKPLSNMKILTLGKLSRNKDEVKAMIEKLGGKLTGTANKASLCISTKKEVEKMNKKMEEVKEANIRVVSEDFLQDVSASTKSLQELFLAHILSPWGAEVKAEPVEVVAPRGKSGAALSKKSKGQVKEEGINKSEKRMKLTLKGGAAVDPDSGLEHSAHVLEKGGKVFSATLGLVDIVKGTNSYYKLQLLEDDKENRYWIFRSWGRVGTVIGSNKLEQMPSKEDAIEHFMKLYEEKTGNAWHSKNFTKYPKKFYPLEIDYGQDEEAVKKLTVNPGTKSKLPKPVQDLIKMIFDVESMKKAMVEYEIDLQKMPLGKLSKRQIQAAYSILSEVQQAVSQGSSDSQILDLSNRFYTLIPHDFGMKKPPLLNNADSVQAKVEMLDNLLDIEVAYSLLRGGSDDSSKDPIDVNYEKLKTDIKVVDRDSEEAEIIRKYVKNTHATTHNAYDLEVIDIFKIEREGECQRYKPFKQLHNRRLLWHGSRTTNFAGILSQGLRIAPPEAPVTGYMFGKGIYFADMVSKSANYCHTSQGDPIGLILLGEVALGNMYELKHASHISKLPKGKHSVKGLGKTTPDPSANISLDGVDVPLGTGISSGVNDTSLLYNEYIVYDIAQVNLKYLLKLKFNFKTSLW

Row | pIC50 [1] | pIC50 [2] | pIC50 [3] | Compound
1 | 6.07 | 7.27 | 7.24 | COc1ccc(-c2nc3c(ccn3C)c(=O)[nH]2)cc1 [Example 39, 2-(4-Methoxy-phenyl)-7-methyl-3,7-dihydro-pyrrolo[2,3-d]pyrimidin-4-one]
2 | 6.54 | 6.93 | 6.96 | CCOc1ccc(-c2nc3c(ccn3C)c(=O)[nH]2)cn1 [Example 40, 2-(6-Ethoxy-pyridin-3-yl)-7-methyl-3,7-dihydro-pyrrolo[2,3-d]pyrimidin-4-one]
3 | 6.51 | 6.12 | 6.25 | Cn1ccc2c(=O)[nH]c(-c3cccnc3)nc21 [Example 41, 7-Methyl-2-pyridin-3-yl-3,7-dihydro-pyrrolo[2,3-d]pyrimidin-4-one]
4 | 6.78 | 6.64 | 6.63 | Cc1ccc(-c2nc3c(ccn3C)c(=O)[nH]2)cn1 [Example 42, 7-Methyl-2-(6-methyl-pyridin-3-yl)-3,7-dihydro-pyrrolo[2,3-d]pyrimidin-4-one]
5 | 5.93 | 6.96 | 6.84 | Cn1ccc2c(=O)[nH]c(-c3ccc(C#N)cc3)nc21 [Example 43, 4-(7-Methyl-4-oxo-4,7-dihydro-3H-pyrrolo[2,3-d]pyrimidin-2-yl)-benzonitrile]
6 | 7.03 | 7.06 | 7.08 | Cn1ccc2c(=O)[nH]c(-c3ccc(C(F)(F)F)nc3)nc21 [Example 44, 7-Methyl-2-(6-trifluoromethyl-pyridin-3-yl)-3,7-dihydro-pyrrolo[2,3-d]pyrimidin-4-one]
7 | 6.07 | 7.40 | 7.41 | Cn1ccc2c(=O)[nH]c(-c3ccc(C(F)(F)F)cc3)cc21 [Example 45, 1-Methyl-6-(4-trifluoromethyl-phenyl)-1,5-dihydro-pyrrolo[3,2-c]pyridin-4-one]
8 | < 4.30 | 6.91 | 6.88 | CCn1ccc2c(=O)[nH]c(-c3ccc(C(F)(F)F)cc3)cc21 [Example 46, 1-Ethyl-6-(4-trifluoromethyl-phenyl)-1,5-dihydro-pyrrolo[3,2-c]pyridin-4-one]
9 | 6.53 | 6.79 | 6.87 | Cn1cc(-c2cc3c(ccn3C)c(=O)[nH]2)cn1 [Example 47, 1-Methyl-6-(1-methyl-1H-pyrazol-4-yl)-1,5-dihydro-pyrrolo[3,2-c]pyridin-4-one]
10 | 5.33 | 7.37 | 7.37 | Cn1ccc2c(=O)[nH]c(N3CCC(c4ccc(F)cc4)CC3)nc21 [Example 48, 2-[4-(4-Fluoro-phenyl)-piperidin-1-yl]-7-methyl-3,7-dihydro-pyrrolo[2,3-d]pyrimidin-4-one]
11 | < 4.30 | 5.89 | 5.87 | C=CCCn1ccc2c(=O)[nH]c(-c3ccc(C(F)(F)F)cc3)nc21 [Example 49, 7-But-3-enyl-2-(4-trifluoromethyl-phenyl)-3,7-dihydro-pyrrolo[2,3-d]pyrimidin-4-one]
12 | < 4.30 | 6.75 | 6.79 | CCn1ccc2c(=O)[nH]c(-c3ccc(C(F)(F)F)cc3)nc21 [Example 50, 7-Ethyl-2-(4-trifluoromethyl-phenyl)-3,7-dihydro-pyrrolo[2,3-d]pyrimidin-4-one]
13 | < 4.30 | 6.27 | 6.19 | CCCn1ccc2c(=O)[nH]c(-c3ccc(C(F)(F)F)cc3)nc21 [Example 51, 7-Propyl-2-(4-trifluoromethyl-phenyl)-3,7-dihydro-pyrrolo[2,3-d]pyrimidin-4-one]
14 | < 4.30 | 6.12 | 6.14 | C=CCn1ccc2c(=O)[nH]c(-c3ccc(C(F)(F)F)cc3)nc21 [Example 52, 7-Allyl-2-(4-trifluoromethyl-phenyl)-3,7-dihydro-pyrrolo[2,3-d]pyrimidin-4-one]
15 | 5.62 | 6.62 | 6.77 | O=c1[nH]c(-c2ccc(C(F)(F)F)cc2)nc2c1ccn2CCC(O)CO (stereo not drawn) [Example 53, 7-(3,4-Dihydroxy-butyl)-2-(4-trifluoromethyl-phenyl)-3,7-dihydro-pyrrolo[2,3-d]pyrimidin-4-one]
16 | 4.87 | 6.37 | 6.63 | O=c1[nH]c(-c2ccc(C(F)(F)F)cc2)nc2c1ccn2CC(O)CO (stereo not drawn) [Example 54, 7-(2,3-Dihydroxy-propyl)-2-(4-trifluoromethyl-phenyl)-3,7-dihydro-pyrrolo[2,3-d]pyrimidin-4-one]
17 | 6.35 | 7.43 | 7.40 | CCNC(=O)c1ccc(N2CCN(c3nc4c(ccn4C)c(=O)[nH]3)CC2)cc1 [Example 55, N-Ethyl-4-[4-(7-methyl-4-oxo-4,7-dihydro-3H-pyrrolo[2,3-d]pyrimidin-2-yl)-piperazin-1-yl]-benzamide]
18 | < 4.30 | 5.11 | 5.04 | Cn1ccc2c(=O)[nH]c(-n3cccn3)nc21 [Example 56, 7-Methyl-2-pyrazol-1-yl-3,7-dihydro-pyrrolo[2,3-d]pyrimidin-4-one]
19 | 5.73 | 7.32 | 7.19 | O=c1[nH]c(-c2ccc(C(F)(F)F)cc2)nc2c1ccn2CO [Example 57, 7-Hydroxymethyl-2-(4-trifluoromethyl-phenyl)-3,7-dihydro-pyrrolo[2,3-d]pyrimidin-4-one]
20 | 5.88 | 6.97 | 7.00 | Cn1ccc2c(=O)[nH]c(N3CC(C)(c4ccccc4)C3)nc21 [Example 58, 7-Methyl-2-(3-methyl-3-phenyl-azetidin-1-yl)-3,7-dihydro-pyrrolo[2,3-d]pyrimidin-4-one]
21 | < 4.30 | 6.26 | 6.21 | O=c1[nH]c(-c2ccc(C(F)(F)F)cc2)nc2c1ccn2C1CC1 [Example 59, 7-Cyclopropyl-2-(4-trifluoromethyl-phenyl)-3,7-dihydro-pyrrolo[2,3-d]pyrimidin-4-one]
22 | 4.97 | 7.48 | 7.26 | O=c1[nH]c(N2CCN(c3ccccc3F)CC2)nc2c1ccn2CO [Example 60, 2-[4-(2-Fluoro-phenyl)-piperazin-1-yl]-7-hydroxymethyl-3,7-dihydro-pyrrolo[2,3-d]pyrimidin-4-one]
23 | 4.83 | 7.47 | 7.55 | O=c1[nH]c(N2CCN(c3c(F)cccc3F)CC2)nc2c1ccn2CC(O)CO (stereo not drawn) [Example 61, 2-(4-(2,6-difluorophenyl)piperazin-1-yl)-7-(2,3-dihydroxypropyl)-3H-pyrrolo[2,3-d]pyrimidin-4(7H)-one]
24 | 5.41 | 6.93 | 6.81 | Cn1ccc2c(=O)[nH]c(-c3ccccc3)nc21 [Example 62, 7-Methyl-2-phenyl-3,7-dihydro-pyrrolo[2,3-d]pyrimidin-4-one]
